Experimental data published in US20200171056A1, “SULFONYLUREA COMPOUNDS IN THE TREATMENT OF DISEASE ASSOCIATED WITH UV-INDUCED DAMAGE” (CeMM - Forschungszentrum für Molekulare Medizin GmbH, priority 2017, published 2020).

What was measured:
Type in all cases: cell-based, human
[1] = tested on: CPDs in genomic DNA of HAP1 cell lines; test: Dot blot for cyclobutane pyrimidine dimers; conditions: HAP1 WT and ΔXPA, 0.5 mM, 15 J/M^2 (FIG. 7C-D)
Method: A. Dose-response curve of WT and ΔXPA cells treated with or without 0.5 mM acetohexamide for the indicated times, followed by UV irradiation. Survival was assessed after 3 days, using CellTiter-Glo. […] Error bars indicate SEM (n=3). B. Clonogenic survival of WT and ΔXPA cells treated with 0.5 mM acetohexamide for 6 hours or left untreated, then exposed to illudin S for 10 days, as indicated. C. WT and ΔXPA cells treated with or without 0.5 mM acetohexamide for the indicated times, followed by 15 J/M^2 irradiation and analyzed by dot blot for the presence of CPDs in genomic DNA. DNA was counterstained with methylene blue (MB) as a loading control. D. Quantification of the intensities of C.
The amount of cyclobutane pyrimidine dimers (CPDs) in DNA was quantified using an immuno-dot blot assay with the CPD-specific monoclonal antibody TDM-2 (Cosmo Bio). Genomic DNA was extracted using QIAamp DNA mini kit (Qiagen), then the genomic DNA was denatured in TE buffer (10 mM Tris-CL and 1 mM EDTA, pH 7.5) by boiling for 5 minutes and subsequently 50 ng of genomic DNA was dot-blotted in triplicate onto a nitrocellulose membrane. The DNA was then fixed by baking the membrane for 2 hours at 80° C. […] Signals were detected using Amersham ECL (GE Healthcare Life Sciences DNA was counterstained with methylene blue as a loading control.

[2] = tested on: WT and ΔXPA cells; test: Cell cycle analysis (propidium iodide, FACS); conditions: 0.5 mM for 6 hours, WT vs ΔXPA (FIG. 8A)
Method: A. WT and ΔXPA cells were either treated with DMSO or 0.5 mM acetohexamide for 6 hours. Cell cycle profiles were determined using propidium iodide (P1) staining followed by FACS analysis. B-D. Survival of WT HAP1 cells treated with either DMSO or 0.5 mM acetohexamide for 6 hours, followed by exposure to the indicated DNA damaging agents (MMC: mitomycin C; HU: hydroxyl urea; MMS: methyl methanesulfonate). Survival was assessed after 3 days using CellTitre-Glo. E. Cell viability of WT cells treated either with 0.5 mM acetohexamide or 30 μM N-acetylcysteine (NAC) for 6 hours, followed by 30 J/M^2 UV exposure.
Cells were treated with either DMSO or acetohexamide as indicated. Cell cycle stages were identified using propidium iodide (PI) staining. Briefly, cells were harvested, resuspended in PBS and fixed overnight with cold 70% ethanol. After centrifugation, ethanol was removed and cells were resuspended in PBS containing 1 μg/mL RNase A and […]. Finally, cells were analyzed on a FACScalibur flow cytometer. Following cell acquisition, analysis was performed using FlowJo software (Tree Star).

[3] = tested on: SUR1 transcript; test: SUR1 mRNA expression by quantitative reverse transcription PCR; conditions: ΔXPA cells, 0.5 mM for 6 hours, 15 J/M^2 UV (FIG. 9B)
Method: A. Fragments Per Kilobase Million (FPKM) for SUR1 and GAPDH in HAP1 WT cells compared, from RNA sequencing. B. mRNA expression of SUR1 transcript assessed by quantitative reverse transcription PCR in WT and ΔXPA cells with or without 0.5 mM acetohexamide treatment for 6 hours, followed by 15 J/M^2 UV irradiation and subsequent recovery as indicated. Expression of GAPDH was used as a reference. Error bars indicate SEM (n=3).
WT and ΔXPA HAP1 cells were harvested and RNA was isolated using phenol-chlorophorm extraction. After treatment with 1 μl DNase (Sigma), the cDNA was transcribed using SuperScript III Reverse Transcriptase (Invitrogen). An amount of 1 μg of cDNA template was used for the qRT-PCR using SYBR Green qPCR Mastermix (Qiagen). Analysis was performed in triplicates using GAPDH as a control gene. The PCR was performed on a 7900HT Fast Real-Time PCR System (Applied Biosystems). The following primers were used: […]

[4] = tested on: MUTYH; test: MUTYH protein levels by immunoblotting; conditions: WT HAP1, 0.5 mM for 6 hours, alone or with 10 μM MG132 (FIG. 4A-B)
Method: (§1) A. WT HAP1 cells were treated with or without 0.5 mM acetohexamide for 6 hours, then released into compound-free media for the indicated time points and immunoblotted with an anti-MUTYH antibody. ACTIN was used as a loading control. B. WT HAP1 cells were either treated with 0.5 mM acetohexamide alone or with 10 μM of the proteasome inhibitor MG132 for 6 hours and analyzed by immunoblotting using an anti-MUTYH antibody. C. Left panel: colony formation of the WT, ΔXPA or ΔXPA-MUTYH HAP1 cells treated with or without 0.5 mM acetohexamide for 6 hours, followed by 15 J/M^2 UV irradiation and then kept in culture for 10 days. Right panel: Macroscopic colonies were stained with crystal violet and quantified. D. WT, ΔXPA or ΔXPA-MUTYH HAP1 cells were treated with 15 J/M^2 UV or left untreated, then kept in culture for the indicated recovery times and analyzed by dot blot for the presence of CPDs within genomic DNA. E. Number of chromosomal abnormalities per metaphase spread of ΔXPA or ΔXPA-MUTYH HAP1 exposed to different doses of UV irradiation. Data in (E) represented as mean±SEM. F. Survival of WT and ΔMULE HAP1 cells exposed to UV irradiation at different doses and assessed after 3 days, using CellTitre-Glo.
Cells were lysed in lysis buffer composed of RIPA lysis buffer supplemented with protease inhibitors (Sigma) and phosphatase inhibitors (Sigma, NEB). […]

[5] = tested on: ΔXPA-MUTYH HAP1 cells; test: Colony formation of double knockout after UV irradiation; conditions: 0.5 mM for 6 hours, 15 J/M^2 UV, 10 days (FIG. 4C)
Method: as §1, with “E. Number of chromosomal abnormalities per metaphase spread of ΔXPA or ΔXPA-MUTYH HAP1 exposed to different doses of UV irradiation. Data in (E) represented as mean±SEM.” left out
Cells were treated with UV at different doses with or without drug pre-treatment and then seeded into 6-well plates, at a density of 1,000 cells/well, in duplicates for 2 weeks until visible colonies were formed. […] Next, the staining solution was removed and the wells were washed, imaged and quantified using CellProfiler.

In the case of `CC(=O)c1ccc(S(=O)(=O)NC(=O)NC2CCCCC2)cc1` [acetohexamide], the “clearance of CPDs, dot blot” value [1] is reported as “same observation was also made for HAP1 cell lines”, the cell cycle profiles [2] is reported as “no difference between wildtype or ΔXPA cells upon acetohexamide treatment” and the SUR1 expression [3] is reported as “not expressed”. The MUTYH protein levels [4] was “decrease in MUTYH protein levels in a proteasome dependent manner” and the “survival of double knockout ΔXPA-MUTYH upon UV treatment” value [5] was “did not lead to a further increase in survival upon UV treatment”.
